Test results from PubChem BioAssay AID308 (DTP/NCI, 2004).
Several values for one entry are separate records, joined by “and”; a condition that tells them apart may be missing. Identical values can stand only once. Inconclusive results and toxic doses are left out.

Tested on: BDF1 mice, L1210 6-MP/6-TG resistant leukemia ip, survival T/C
Experiment: NCI In Vivo Anticancer Drug Screen. Data for tumor model L1210 Leukemia resistant to 6-MP and 6-Thioguanine; NSC 755, NSC 752 (intraperitoneal) in B6D2F1 (BDF1) mice
Conditions: endpoint: mean survival time, higher = longer survival
Protocol: The antitumor activity of compounds was measured in mice bearing transplantable tumors. Survival or tumor size were measured and the results are expressed as the measurement made in the treated group (T) divided by the measurement made in the vehicle treated control group (C). The tumor model used in this assay is L1210 Leukemia resistant to 6-MP and 6-Thioguanine; NSC 755, NSC 752 (intraperitoneal) in B6D2F1 (BDF1) mice

[1] = dose: 37.5 mg/kg/injection, schedule: Q01DX Z (ip), vehicle: carboxymethylcellulose (CMC)
[2] = dose: 75.0 mg/kg/injection, schedule: Q01DX Z (ip), vehicle: carboxymethylcellulose (CMC)
[3] = dose: 12.5 mg/kg/injection, schedule: Q01DX Z (ip), vehicle: carboxymethylcellulose (CMC)

In the case of `S=c1nc[nH]c2c1ncn2CN1CCCCC1`, the T/C (dose: 50.0 mg/kg/injection, schedule: Q01DX009 (ip), vehicle: other) is reported as 94 % of control.
In the case of `COc1cc([C@@H]2c3cc4c(cc3[C@H](O)[C@H]3COC(=O)[C@@H]23)OCO4)cc(OC)c1OC`, the T/C (dose: 10.0 mg/kg/injection, schedule: Q01DX Z (ip), vehicle: carboxymethylcellulose (CMC)) is reported as 124 % of control and the T/C (dose: 40.0 mg/kg/injection, schedule: Q01DX Z (ip), vehicle: carboxymethylcellulose (CMC)) is reported as 101 % of control.
With `CCn1cnc2c(SC3CCCC3)ncnc21` the T/C (dose: 125.0 mg/kg/injection, schedule: Q01DX Z (ip), vehicle: carboxymethylcellulose (CMC)) was 98 % of control and the T/C (dose: 250.0 mg/kg/injection, schedule: Q01DX Z (ip), vehicle: carboxymethylcellulose (CMC)) was 98 % of control.
In the case of `O=c1cnn(C2OC(CO)C(O)C2O)c(=O)[nH]1` (stereo not drawn), the T/C (dose: 62.5 mg/kg/injection, schedule: Q01DX Z (ip), vehicle: saline) is reported as 115 % of control, the T/C (dose: 500.0 mg/kg/injection, schedule: Q01DX Z (ip), vehicle: saline) is reported as 120 % of control and the T/C (dose: 750.0 mg/kg/injection, schedule: Q01DX Z (ip), vehicle: saline) is reported as 110 % of control. For the same compound, the T/C (dose: 1000.0 mg/kg/injection, schedule: Q01DX Z (ip), vehicle: saline) was 109 % of control.
In the case of `CC[C@]1(O)C[C@H]2CN(CCc3c([nH]c4ccccc34)[C@@](C(=O)OC)(c3cc4c(cc3OC)N(C=O)[C@H]3[C@@](O)(C(=O)OC)[C@H](OC(C)=O)[C@]5(CC)C=CCN6CC[C@]43[C@@H]65)C2)C1`, the T/C (dose: 0.09 mg/kg/injection, schedule: Q01DX015 (ip), vehicle: carboxymethylcellulose (CMC)) is reported as 91 % of control and 110 % of control, the T/C (dose: 0.13 mg/kg/injection, schedule: Q01DX015 (ip), vehicle: carboxymethylcellulose (CMC)) is reported as 114 % of control and 98 % of control and the T/C (dose: 0.2 mg/kg/injection, schedule: Q01DX015 (ip), vehicle: carboxymethylcellulose (CMC)) is reported as 94 % of control and 106 % of control. For the same compound, the T/C (dose: 0.3 mg/kg/injection, schedule: Q01DX015 (ip), vehicle: carboxymethylcellulose (CMC)) was 90 % of control and 92 % of control and the T/C (dose: 0.45 mg/kg/injection, schedule: Q01DX015 (ip), vehicle: carboxymethylcellulose (CMC)) was 93 % of control.
For `Nc1nc2n[nH]nc2c(=O)[nH]1`, the T/C (dose: 12.5 mg/kg/injection, schedule: Q01DX Z (ip), vehicle: water) was 100 % of control, the T/C (dose: 25.0 mg/kg/injection, schedule: Q01DX Z (ip), vehicle: water) was 104 % of control and the T/C (dose: 50.0 mg/kg/injection, schedule: Q01DX Z (ip), vehicle: water) was 98 % of control. For the same compound, the T/C (dose: 100.0 mg/kg/injection, schedule: Q01DX Z (ip), vehicle: water) was 92 % of control and the T/C (dose: 200.0 mg/kg/injection, schedule: Q01DX Z (ip), vehicle: water) was 95 % of control.
In the case of `O=P1(N(CCCl)CCCl)NCCCO1` (stereo not drawn), the T/C (dose: 37.5 mg/kg/injection, schedule: Q01DX Z (ip), vehicle: saline) is reported as 153 % of control, the T/C (dose: 75.0 mg/kg/injection, schedule: Q01DX Z (ip), vehicle: saline) is reported as 94 % of control and the T/C (dose: 100.0 mg/kg/injection, schedule: Q01DX Z (ip), vehicle: saline) is reported as 101 % of control.
For `COc1cc2c(c3c1c(=O)c1ccccc1n3C)C=CC(C)(C)O2`, the T/C (dose: 20.0 mg/kg/injection, schedule: Q01DX015 (ip), vehicle: carboxymethylcellulose (CMC)) was 106 % of control and the T/C (dose: 40.0 mg/kg/injection, schedule: Q01DX015 (ip), vehicle: carboxymethylcellulose (CMC)) was 116 % of control.
In the case of `C[C@H]1C(=O)O[C@@H]2CCN3CC=C(COC(=O)[C@](C)(O)[C@@]1(C)O)[C@H]23`, the T/C [1] is reported as 91 % of control, the T/C [2] is reported as 110 % of control and the T/C (dose: 150.0 mg/kg/injection, schedule: Q01DX Z (ip), vehicle: carboxymethylcellulose (CMC)) is reported as 107 % of control. For the same compound, the T/C (dose: 300.0 mg/kg/injection, schedule: Q01DX Z (ip), vehicle: carboxymethylcellulose (CMC)) was 104 % of control.
For `CC/C(=C(/CC)c1ccc(O)cc1)c1ccc(O)cc1`, the T/C (dose: 37.5 mg/kg/injection, schedule: Q01DX Z (sc), vehicle: steriod suspending solution) was 90 % of control, the T/C (dose: 50.0 mg/kg/injection, schedule: Q01DX Z (sc), vehicle: steriod suspending solution) was 95 % of control and the T/C (dose: 75.0 mg/kg/injection, schedule: Q01DX Z (sc), vehicle: steriod suspending solution) was 94 % of control. For the same compound, the T/C (dose: 100.0 mg/kg/injection, schedule: Q01DX Z (sc), vehicle: steriod suspending solution) was 94 % of control.
`CCCNc1ncnc2[nH]ncc12` was tested, and the T/C (dose: 25.0 mg/kg/injection, schedule: Q01DX Z (ip), vehicle: saline) was 111 % of control.
With `CCCC(=O)OCC1OC(n2cnc3c(=S)nc[nH]c32)C(OC(=O)CCC)C1OC(=O)CCC` (stereo not drawn) the T/C (dose: 6.25 mg/kg/injection, schedule: Q01DX Z (ip), vehicle: other) was 99 % of control, the T/C (dose: 12.5 mg/kg/injection, schedule: Q01DX Z (ip), vehicle: other) was 92 % of control and the T/C (dose: 25.0 mg/kg/injection, schedule: Q01DX009 (ip), vehicle: Klucel (hydroxypropylcellulose) (HPC)) was 92 % of control. The T/C (dose: 25.0 mg/kg/injection, schedule: Q01DX Z (ip), vehicle: other) was 90 % of control and 92 % of control, the T/C (dose: 50.0 mg/kg/injection, schedule: Q01DX009 (ip), vehicle: Klucel (hydroxypropylcellulose) (HPC)) was 98 % of control and the T/C (dose: 50.0 mg/kg/injection, schedule: Q01DX Z (ip), vehicle: other) was 96 % of control. The T/C (dose: 100.0 mg/kg/injection, schedule: Q01DX009 (ip), vehicle: Klucel (hydroxypropylcellulose) (HPC)) was 92 % of control and the T/C (dose: 100.0 mg/kg/injection, schedule: Q01DX Z (ip), vehicle: other) was 90 % of control.
For `O=C(Nc1ccc(C2=NCCN2)cc1)c1ccc(C(=O)Nc2ccc(C3=NCCN3)cc2)c([N+](=O)[O-])c1`, the T/C (dose: 0.5 mg/kg/injection, schedule: Q01DX Z (ip), vehicle: methylcellulose (MC)) was 98 % of control, the T/C (dose: 1.0 mg/kg/injection, schedule: Q01DX Z (ip), vehicle: methylcellulose (MC)) was 93 % of control and the T/C (dose: 2.0 mg/kg/injection, schedule: Q01DX Z (ip), vehicle: carboxymethylcellulose (CMC)) was 181 % of control. The T/C (dose: 2.0 mg/kg/injection, schedule: Q01DX Z (ip), vehicle: methylcellulose (MC)) was 112 % of control, the T/C (dose: 4.0 mg/kg/injection, schedule: Q01DX Z (ip), vehicle: carboxymethylcellulose (CMC)) was 233 % of control and the T/C (dose: 6.0 mg/kg/injection, schedule: Q01DX Z (ip), vehicle: carboxymethylcellulose (CMC)) was 186 % of control. For the same compound, the T/C (dose: 6.0 mg/kg/injection, schedule: Q01DX Z (ip), vehicle: methylcellulose (MC)) was 224 % of control, the T/C (dose: 8.0 mg/kg/injection, schedule: Q01DX Z (ip), vehicle: carboxymethylcellulose (CMC)) was 124 % of control and 232 % of control and the T/C (dose: 12.0 mg/kg/injection, schedule: Q01DX Z (ip), vehicle: carboxymethylcellulose (CMC)) was 173 % of control. For the same compound, the T/C (dose: 27.0 mg/kg/injection, schedule: Q01DX Z (ip), vehicle: carboxymethylcellulose (CMC)) was 107 % of control, the T/C (dose: 27.0 mg/kg/injection, schedule: Q02DX010 (ip), vehicle: saline) was 224 % of control and the T/C (dose: 60.0 mg/kg/injection, schedule: Q02DX010 (ip), vehicle: saline) was 111 % of control.
With `CC(=O)CSc1ncnc2nc[nH]c12` the T/C (dose: 3.12 mg/kg/injection, schedule: Q01DX015 (ip), vehicle: carboxymethylcellulose (CMC)) was 93 % of control, the T/C (dose: 6.25 mg/kg/injection, schedule: Q01DX015 (ip), vehicle: carboxymethylcellulose (CMC)) was 98 % of control and the T/C (dose: 12.5 mg/kg/injection, schedule: Q01DX015 (ip), vehicle: carboxymethylcellulose (CMC)) was 103 % of control. The T/C (dose: 25.0 mg/kg/injection, schedule: Q01DX015 (ip), vehicle: carboxymethylcellulose (CMC)) was 96 % of control, the T/C (dose: 50.0 mg/kg/injection, schedule: Q01DX015 (ip), vehicle: carboxymethylcellulose (CMC)) was 96 % of control and the T/C (dose: 62.0 mg/kg/injection, schedule: Q01DX015 (ip), vehicle: carboxymethylcellulose (CMC)) was 100 % of control. For the same compound, the T/C (dose: 125.0 mg/kg/injection, schedule: Q01DX015 (ip), vehicle: carboxymethylcellulose (CMC)) was 100 % of control and the T/C (dose: 250.0 mg/kg/injection, schedule: Q01DX015 (ip), vehicle: carboxymethylcellulose (CMC)) was 95 % of control.
In the case of `CSc1ncc(Br)c(Sc2nc(N)nc3nc[nH]c23)n1`, the T/C (dose: 3.12 mg/kg/injection, schedule: Q01DX Z (ip), vehicle: carboxymethylcellulose (CMC)) is reported as 100 % of control, the T/C (dose: 6.25 mg/kg/injection, schedule: Q01DX Z (ip), vehicle: carboxymethylcellulose (CMC)) is reported as 95 % of control and the T/C [3] is reported as 88 % of control.
With `c1nc(Sc2ncnc3nc[nH]c23)c2[nH]cnc2n1` the T/C (dose: 37.0 mg/kg/injection, schedule: Q01DX009 (ip), vehicle: other) was 100 % of control, the T/C (dose: 75.0 mg/kg/injection, schedule: Q01DX009 (ip), vehicle: other) was 107 % of control and the T/C (dose: 150.0 mg/kg/injection, schedule: Q01DX009 (ip), vehicle: other) was 95 % of control. For the same compound, the T/C (dose: 300.0 mg/kg/injection, schedule: Q01DX009 (ip), vehicle: other) was 91 % of control.
In the case of `N#CCSc1ncnc2nc[nH]c12`, the T/C [3] is reported as 86 % of control, the T/C (dose: 25.0 mg/kg/injection, schedule: Q01DX Z (ip), vehicle: carboxymethylcellulose (CMC)) is reported as 88 % of control and the T/C [1] is reported as 87 % of control. For the same compound, the T/C [2] was 90 % of control and the T/C (dose: 100.0 mg/kg/injection, schedule: Q01DX Z (ip), vehicle: carboxymethylcellulose (CMC)) was 100 % of control.
